From patent US9453051B2, “Cyclosporin derivatives” (priority 2011, dated 2016) come the findings set out here.

One may read the IC50 as the point on the concentration scale where inhibition reaches its midpoint.

Read-outs that look alike come from different tables or passages of the source.

For experiment [1], the system named is NFAT. In words: Cellular NFAT-reporter-gene assay (GloResponse NFAT-RE-luc2P HEK293). Particulars: Homo sapiens, read-out: NFAT-reporter-gene assay IC50. In kind it is cell-based. From the text:
An antigen specific stimulation of the T-cell receptor causes the activation of transcription factors such as e.g. NFAT (nuclear factor of activated T cells). NFAT-activation is essential for the expression of interleukine-2 and therefore, for the proliferation of T-cells as part of the immune response. A stable NFAT-reporter-gene cell line enables the analysis of modulators of the NFAT-pathways and thus, the evaluation of the immunosuppressive effects of compounds.
The stably transfected reporter-gene cell line GloResponse NFAT-RE-luc2P HEK293 (promega Corp. USA) was cultivated in DMEM (10% FCS; 2 mM Glutamin; 200 μg/ml Hygromycin) and seeded on 96-well plates (200.000 cells/well). The compounds to be tested were either added to the cells in a 2-point-determination (5 μM and 10 μM) or an ICH-determination (concentration series 4.1 nM-1 μM). […] Immediately thereafter the cells were stimulated with 5 nM PMA and 2 μM ionomycin and incubated over 16 h (37° C.; cell incubator). This double stimulation simulates a T-cell receptor stimulation and causes a NFAT activation with subsequently expression of the luciferase-reporter-gene. The amount of luciferase was quantitatively determined after 16 h by measurement of the bioluminescence by Bright-Glo Luciferase-Assay-System (Promega Corp., USA). The averaged luciferase values of the vehicle treated (1% DMSO) and with PMA/ionomycin stimulated cells were used as positive control and reference value.

For experiment [2], the target named is recombinant human wild type Cyp18 (Cyp18 wt) (Homo sapiens, UniProt P62937). In words: biochemical.
recombinant human wild type Cyp18 (Cyp18 wt), sequence (P62937 whole entry): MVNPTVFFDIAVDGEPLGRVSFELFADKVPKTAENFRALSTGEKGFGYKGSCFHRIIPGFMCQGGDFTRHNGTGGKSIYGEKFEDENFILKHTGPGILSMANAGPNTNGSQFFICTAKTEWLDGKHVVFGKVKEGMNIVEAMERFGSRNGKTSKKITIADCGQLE
Method: The determination was performed on a UV/Vis spectrometer at 10° C. cuvette temperature, whereby the device is operated at 390 nm in kinetic-mode (measurement buffer: 35 mM HEPES/NaOH pH 7.8 (AppliChem A1069)). 0.58 nM recombinant human wild type Cyp18 (Cyp18 wt), 2.33 nM bovine serum albumin (BSA) and 1 mg/ml chymotrypsin (Merck) solved in 35 mM HEPES/NaOH pH 7.8 as well as different concentration of each test substance, where appropriate, were in the cuvette. The reaction was started with a stock solution of Suc-Ala-Ala-Pro-Phe-4-nitroanilide (Bachem, 10 mg/ml DMSO) as substrate so that a final substrate concentration of 32 μM resulted. The extinction-time-curves were evaluated after expiry of the fast phase of the reaction i.e. after approximately 60 seconds according to a rate equation of a first-order reaction.
Experiment [3] addresses calcineurin (Homo sapiens, UniProt P62937+P63098+Q08209). Description: Inhibition of the phosphatase activity of calcineurin (scintillation-proximity-assay, in presence of Cyp18).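 Also: calcineurin dephosphorylation of a ³³P-labelled RII phosphopeptide, captured on streptavidin-coated wells and read by scintillation counting, with uninhibited enzyme activity taken as 100%.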

In the case of `CC[C@@H]1NC(=O)[C@H]([C@H](O)[C@H](C)Cc2nc3cc(NC(=O)C(F)(F)F)ccc3[nH]2)N(C)C(=O)[C@H](C(C)C)N(C)C(=O)[C@H](CC(C)C)N(C)C(=O)[C@H](CC(C)C)N(C)C(=O)[C@@H](C)NC(=O)[C@H](C)NC(=O)[C@H](CC(C)C)N(C)C(=O)[C@H](C(C)C)NC(=O)[C@H](CC(C)C)N(C)C(=O)CN(C)C1=O` [Compound 38], the IC50 in experiment [1] (HEK293, 16 h) turned out to be 3.8 µM; in experiment [2] it was 0.0143 µM; in experiment [3], 3.34 µM.

`CC[C@@H]1NC(=O)[C@H]([C@H](O)[C@H](C)Cc2nc3cc(C(=O)OCCN4CCOCC4)ccc3[nH]2)N(C)C(=O)[C@H](C(C)C)N(C)C(=O)[C@H](CC(C)C)N(C)C(=O)[C@H](CC(C)C)N(C)C(=O)[C@@H](C)NC(=O)[C@H](C)NC(=O)[C@H](CC(C)C)N(C)C(=O)[C@H](C(C)C)NC(=O)[C@H](CC(C)C)N(C)C(=O)CN(C)C1=O` [Compound 27]: the 50% inhibitory concentration (IC50) in experiment [1] (HEK293, 16 h) turned out to be 7.4 µM; in experiment [2], 0.0059 µM; in experiment [3], 6.4 µM.

`CC[C@@H]1NC(=O)[C@H]([C@H](O)[C@H](C)Cc2nc3nc(O)nc(O)c3[nH]2)N(C)C(=O)[C@H](C(C)C)N(C)C(=O)[C@H](CC(C)C)N(C)C(=O)[C@H](CC(C)C)N(C)C(=O)[C@@H](C)NC(=O)[C@H](C)NC(=O)[C@H](CC(C)C)N(C)C(=O)[C@H](C(C)C)NC(=O)[C@H](CC(C)C)N(C)C(=O)CN(C)C1=O` [Compound 24]: the half-inhibitory concentration (IC50) in experiment [1] (HEK293, 16 h) is above 10 µM; in experiment [2], 0.0062 µM; in experiment [3] it was above 10 µM.

For the molecule `CC[C@@H]1NC(=O)[C@H]([C@H](O)[C@H](C)CC2=NCCN2)N(C)C(=O)[C@H](C(C)C)N(C)C(=O)[C@H](CC(C)C)N(C)C(=O)[C@H](CC(C)C)N(C)C(=O)[C@@H](C)NC(=O)[C@H](C)NC(=O)[C@H](CC(C)C)N(C)C(=O)[C@H](C(C)C)NC(=O)[C@H](CC(C)C)N(C)C(=O)CN(C)C1=O` [Compound 42], the IC50 in experiment [1] (HEK293 reporter cells stimulated with 5 nM PMA and 2 μM ionomycin, 16 h) was found to be 10 µM.

`CC[C@@H]1NC(=O)[C@H]([C@H](O)[C@H](C)Cc2nc3ncnc(O)c3[nH]2)N(C)C(=O)[C@H](C(C)C)N(C)C(=O)[C@H](CC(C)C)N(C)C(=O)[C@H](CC(C)C)N(C)C(=O)[C@@H](C)NC(=O)[C@H](C)NC(=O)[C@H](CC(C)C)N(C)C(=O)[C@H](C(C)C)NC(=O)[C@H](CC(C)C)N(C)C(=O)CN(C)C1=O` [Compound 18]: the half-maximal inhibitory concentration (IC50) in experiment [1] (HEK293, 16 h) was above 10 µM; in experiment [2], 0.0014 µM.

Take `CC[C@@H]1NC(=O)[C@H]([C@H](O)[C@H](C)Cc2nc3cc(N4CCN(C)CC4)ccc3[nH]2)N(C)C(=O)[C@H](C(C)C)N(C)C(=O)[C@H](CC(C)C)N(C)C(=O)[C@H](CC(C)C)N(C)C(=O)[C@@H](C)NC(=O)[C@H](C)NC(=O)[C@H](CC(C)C)N(C)C(=O)[C@H](C(C)C)NC(=O)[C@H](CC(C)C)N(C)C(=O)CN(C)C1=O` [Compound 41]: the IC50 was above 10 µM in experiment [1] (HEK293, 16 h); 0.003 µM in experiment [2]; above 10 µM in experiment [3].

For the molecule `CC[C@@H]1NC(=O)[C@H]([C@H](O)[C@H](C)Cc2nc3cc(/C=C/C(=O)O)ccc3[nH]2)N(C)C(=O)[C@H](C(C)C)N(C)C(=O)[C@H](CC(C)C)N(C)C(=O)[C@H](CC(C)C)N(C)C(=O)[C@@H](C)NC(=O)[C@H](C)NC(=O)[C@H](CC(C)C)N(C)C(=O)[C@H](C(C)C)NC(=O)[C@H](CC(C)C)N(C)C(=O)CN(C)C1=O` [Compound 15], the concentration for half-maximal inhibition (IC50) in experiment [1] (HEK293, 16 h) is above 10 µM; in experiment [2] it was 0.0048 µM; in experiment [3], above 10 µM.

As to `CCCCOC(=O)c1ccc2[nH]c(C[C@@H](C)[C@@H](O)[C@H]3C(=O)N[C@@H](CC)C(=O)N(C)CC(=O)N(C)[C@@H](CC(C)C)C(=O)N[C@@H](C(C)C)C(=O)N(C)[C@@H](CC(C)C)C(=O)N[C@@H](C)C(=O)N[C@H](C)C(=O)N(C)[C@@H](CC(C)C)C(=O)N(C)[C@@H](CC(C)C)C(=O)N(C)[C@@H](C(C)C)C(=O)N3C)nc2c1` [Compound 11], the IC50 in experiment [1] (HEK293, 16 h) was 10 µM.

For the molecule `CC[C@@H]1NC(=O)[C@H]([C@H](O)[C@H](C)Cc2nc3cc(N)c(N)cc3[nH]2)N(C)C(=O)[C@H](C(C)C)N(C)C(=O)[C@H](CC(C)C)N(C)C(=O)[C@H](CC(C)C)N(C)C(=O)[C@@H](C)NC(=O)[C@H](C)NC(=O)[C@H](CC(C)C)N(C)C(=O)[C@H](C(C)C)NC(=O)[C@H](CC(C)C)N(C)C(=O)CN(C)C1=O` [Compound 40], the concentration for half-maximal inhibition (IC50) in experiment [1] (HEK293, 16 h) was above 10 µM; in experiment [2] it was 0.0055 µM; in experiment [3], 8 µM.

Turning to `CC[C@@H]1NC(=O)[C@H]([C@H](O)[C@H](C)Cc2nc3cccc(C(=O)OC)c3[nH]2)N(C)C(=O)[C@H](C(C)C)N(C)C(=O)[C@H](CC(C)C)N(C)C(=O)[C@H](CC(C)C)N(C)C(=O)[C@@H](C)NC(=O)[C@H](C)NC(=O)[C@H](CC(C)C)N(C)C(=O)[C@H](C(C)C)NC(=O)[C@H](CC(C)C)N(C)C(=O)CN(C)C1=O` [Compound 29], the IC50 was 10 µM in experiment [1] (HEK293, 16 h); 0.0295 µM in experiment [2]; above 10 µM in experiment [3].

In the case of `CC[C@@H]1NC(=O)[C@H]([C@H](O)[C@H](C)Cc2nc3cc(NS(=O)(=O)C(F)(F)F)ccc3[nH]2)N(C)C(=O)[C@H](C(C)C)N(C)C(=O)[C@H](CC(C)C)N(C)C(=O)[C@H](CC(C)C)N(C)C(=O)[C@@H](C)NC(=O)[C@H](C)NC(=O)[C@H](CC(C)C)N(C)C(=O)[C@H](C(C)C)NC(=O)[C@H](CC(C)C)N(C)C(=O)CN(C)C1=O` [Compound 47], the IC50 is above 10 µM in experiment [1] (HEK293, 16 h); 0.0132 µM in experiment [2]; above 10 µM in experiment [3].

For the molecule `CC[C@@H]1NC(=O)[C@H]([C@H](O)[C@H](C)CC2=NC(C(=O)O)CO2)N(C)C(=O)[C@H](C(C)C)N(C)C(=O)[C@H](CC(C)C)N(C)C(=O)[C@H](CC(C)C)N(C)C(=O)[C@@H](C)NC(=O)[C@H](C)NC(=O)[C@H](CC(C)C)N(C)C(=O)[C@H](C(C)C)NC(=O)[C@H](CC(C)C)N(C)C(=O)CN(C)C1=O` (stereo partly shown) [Compound 43], the IC50 in experiment [1] (HEK293, 16 h) worked out at 5.3 µM; in experiment [2], 0.0453 µM.

As to `CC[C@@H]1NC(=O)[C@H]([C@H](O)[C@H](C)Cc2nc3cc(C(=O)OCCN(C)C)ccc3[nH]2)N(C)C(=O)[C@H](C(C)C)N(C)C(=O)[C@H](CC(C)C)N(C)C(=O)[C@H](CC(C)C)N(C)C(=O)[C@@H](C)NC(=O)[C@H](C)NC(=O)[C@H](CC(C)C)N(C)C(=O)[C@H](C(C)C)NC(=O)[C@H](CC(C)C)N(C)C(=O)CN(C)C1=O` [Compound 26], the concentration for half-maximal inhibition (IC50) is above 10 µM in experiment [1] (HEK293, 16 h); 0.0108 µM in experiment [2]; 6.2 µM in experiment [3].

Consider `CC[C@@H]1NC(=O)[C@H]([C@H](O)[C@H](C)Cc2nc3ccc(C(=O)OC)c(C(=O)OC)c3[nH]2)N(C)C(=O)[C@H](C(C)C)N(C)C(=O)[C@H](CC(C)C)N(C)C(=O)[C@H](CC(C)C)N(C)C(=O)[C@@H](C)NC(=O)[C@H](C)NC(=O)[C@H](CC(C)C)N(C)C(=O)[C@H](C(C)C)NC(=O)[C@H](CC(C)C)N(C)C(=O)CN(C)C1=O` [Compound 30], for which the half-maximal inhibitory concentration (IC50) was above 10 µM in experiment [1] (HEK293, 16 h) and 0.0291 µM in experiment [2].

Consider `CC[C@@H]1NC(=O)[C@H]([C@H](O)[C@H](C)Cc2nc3cc(C(=O)NC(CCC(=O)O)C(=O)NC(CCC(=O)O)C(=O)O)ccc3[nH]2)N(C)C(=O)[C@H](C(C)C)N(C)C(=O)[C@H](CC(C)C)N(C)C(=O)[C@H](CC(C)C)N(C)C(=O)[C@@H](C)NC(=O)[C@H](C)NC(=O)[C@H](CC(C)C)N(C)C(=O)[C@H](C(C)C)NC(=O)[C@H](CC(C)C)N(C)C(=O)CN(C)C1=O` (stereo partly shown) [Compound 13], for which the IC50 in experiment [1] (HEK293, 16 h) was above 10 µM; in experiment [2], 0.0111 µM; in experiment [3], above 10 µM.

In the case of `CC[C@@H]1NC(=O)[C@H]([C@H](O)[C@H](C)Cc2nc3cc(-c4ccc(N)c(N)c4)ccc3[nH]2)N(C)C(=O)[C@H](C(C)C)N(C)C(=O)[C@H](CC(C)C)N(C)C(=O)[C@H](CC(C)C)N(C)C(=O)[C@@H](C)NC(=O)[C@H](C)NC(=O)[C@H](CC(C)C)N(C)C(=O)[C@H](C(C)C)NC(=O)[C@H](CC(C)C)N(C)C(=O)CN(C)C1=O` [Compound 39], the half-inhibitory concentration (IC50) was 10 µM in experiment [1] (HEK293, 16 h); 0.0061 µM in experiment [2]; above 10 µM in experiment [3].

`CC[C@@H]1NC(=O)[C@H]([C@H](O)[C@H](C)Cc2nc3cc(C(=O)OC(C)C)ccc3[nH]2)N(C)C(=O)[C@H](C(C)C)N(C)C(=O)[C@H](CC(C)C)N(C)C(=O)[C@H](CC(C)C)N(C)C(=O)[C@@H](C)NC(=O)[C@H](C)NC(=O)[C@H](CC(C)C)N(C)C(=O)[C@H](C(C)C)NC(=O)[C@H](CC(C)C)N(C)C(=O)CN(C)C1=O` [Compound 25]: in experiment [1] (HEK293, 16 h), the 50% inhibitory concentration (IC50) was 10 µM.

On to `CC[C@@H]1NC(=O)[C@H]([C@H](O)[C@H](C)Cc2nc3ccc4c(S(=O)(=O)O)cccc4c3[nH]2)N(C)C(=O)[C@H](C(C)C)N(C)C(=O)[C@H](CC(C)C)N(C)C(=O)[C@H](CC(C)C)N(C)C(=O)[C@@H](C)NC(=O)[C@H](C)NC(=O)[C@H](CC(C)C)N(C)C(=O)[C@H](C(C)C)NC(=O)[C@H](CC(C)C)N(C)C(=O)CN(C)C1=O` [Compound 45], for which the IC50 in experiment [1] (HEK293, 16 h) was above 10 µM.
